We go through one compound from patent US20220008397A1, “PHARMACEUTICAL COMPOSITION FOR THE TREATMENT OF OCULAR NEOVASCULARISATION” (NOVALIQ GMBH, priority 2019, published 2022).

For data set [1] the following is noted: Tamura et al., 2002; cited from earlier work.
Data set [2] deals with choroidal angiogenesis. In words: In vitro model of choroidal angiogenesis. Format: cell-based. Particulars: 20 ng/mL and 4 ng/mL. As for the experimental part:
The antiangiogenic effect of Tacrolimus was also tested in an in vitro model of choroidal angiogenesis and compared with dexamethasone.

Data set [3] deals with BMDMs (bone marrow derived macrophages). In words: In vitro study using BMDMs (culture of bone marrow derived macrophages), expression of angiogenic growth factors. Format: cell-based.

On to `C=CC[C@@H]1/C=C(\C)C[C@H](C)C[C@H](OC)[C@H]2O[C@@](O)(C(=O)C(=O)N3CCCC[C@H]3C(=O)O[C@H](/C(C)=C/[C@@H]3CC[C@@H](O)[C@H](OC)C3)[C@H](C)[C@@H](O)CC1=O)[C@H](C)C[C@@H]2OC` [Tacrolimus], for which the “Ability to penetrate tissue barrier upon topical administration” value in data set [1] was “poor ability to penetrate tissue barrier”. Moreover, the “Dose dependence of the suppression of choroidal angiogenesis in vitro” value in data set [2] (100 ng/mL) was “not dose-dependent”. For the same compound, in data set [2] (tacrolimus at 100 ng/mL), the “Effect on choroidal angiogenesis in vitro” value is “suppressed choroidal angiogenesis”. The “Expression of pro-angiogenic growth factors” value in data set [3] is reported as “can reduce the expression of pro-angiogenic growth factors”.
